From patent US20090304712A1, “Neuronal Cell Death Inhibitor and Screening Method” (NATIONAL UNIVERSITY CORPORATION NAGOYA UNIVERSITY, priority 2006, published 2009)

Key:
[1] = test system: ischemia-induced delayed neuronal cell death model; assay: Ischemia-induced delayed neuronal cell death model; assay type: in vivo, Mongolian gerbils; conditions: for delayed neuronal cell death (micrographs of hippocampal CA1, FIG. 15) / number of surviving neurons per 100 μm in the hippocampal CA1 region: 7 days after ischemia; for number of surviving neurons per 100 μm in the hippocampal CA1 region: p<0.001 versus control
Method: In the present example, the effect of gap junction inhibitor and glutaminase inhibitor on neuronal cell death was evaluated using ischemia-induced delayed neuronal cell death model. Note that all protocols were approved by the Animal Experiment Committee of Nagoya University. Note that the animal model in the present example corresponds to a model of ischemic disorder, which is a nervous system disease.
According to reference by Imai et al. (Imai F, Sawada M, Suzuki H, Zlokovic B V, Kojima J, Kuno S, Nagatsu T, Nitatori T, Uchiyama Y, Kanno T., Exogenous microglia enter the brain and migrate into ischemic hippocampal lesions. et al. Neuroscience Letter. 272 (2): 127-130. 1999)□ adult male Mongolian gerbils, 10-12 weeks old and weighing approximately 70 g, were anesthetized with sevoflurane maintaining rectal temperature at 37° C. Global forebrain ischemia was produced transiently by occluding both common carotid arteries for 5 minutes using aneurysm clips.
Administration of the gap junction inhibitor carbenoxolone (CBX) was carried out in the following three groups. That is to say, the doses were 20 mg/kg body weight (CBX1), 2 mg/kg body weight (CBX1/10) and 0.2 mg/kg body weight (CBX1/100). Administration of the glutaminase inhibitor 6-diazo-5-oxo-L norleucine (DON) was carried out in the following three groups. That is to say, the doses were 1.6 mg/kg body weight (DON1), 0.16 mg/kg body weight (DON1/10) and 0.016 mg/kg body weight (DON1/100). CBX or DON was administered intraperitoneally every other day from the day of ischemia. Note that control animals were injected with the equal volume of phosphate-buffered saline (PBS).
Seven days after ischemia, gerbils were anesthetized and transcardically perfused with 4% paraformaldehyde in PBS. The brains were removed, embedded in O.C.T. compound (manufactured by Sakura Finetech) and then frozen in liquid nitrogen. Frozen sections were prepared with a cryostat (8 μm thick), were mounted onto a slide glass and were stained with haematoxylin and eosin. To assess the effect of drug treatment on delayed neuronal death, the number of surviving neurons per 100 μm in the hippocampal CA1 region was counted under a microscope.

[2] = test system: experimental autoimmune encephalomyelitis (EAE) model; assay: MOG-induced experimental autoimmune encephalomyelitis (EAE) model; assay type: in vivo, C57BL/6J mice; conditions: for EAE onset day (EAE clinical score becomes 1 or greater) / number of severe sick days (EAE clinical score four or greater): p<0.05
[3] = test system: mouse cerebral cortex primary neurons; assay: Dead neurons (propidium iodide dye-exclusion) in neurons incubated with activated microglia conditioned medium; assay type: cell-based; conditions: 24 h
Method: (§1) Mouse primary microglia were isolated from primary mixed glial cell cultures (obtained from newborn C57BL/6J mice brains) by the ‘shaking off’ method on the 14th culture day or later (Suzumura, A. et al. MHC antigen expression on bulk isolated macrophage-microglia from newborn mouse brain: induction of 1a antigen expression by gamma-interferon. J. Neuroimmunol. 15, 263-278 (1987)).
In addition, mouse cerebral cortex primary neurons were prepared from the cerebral cortices of C57BL/6J mice at embryonic 17th day, and were plated on poly-ethyleneimine (PEI)-coated cover slips. […]
(§2) The various neurons obtained as above were cultured for 24 hours, then, neurons in each well were measured for both the number of neurons with neuritic beading degeneration and the number of dead neurons. […] The ratio of neurons with neuritic beading degeneration was calculated as a percentage of total neurons. Note that neurons in duplicate wells were assessed blindly in three independent trials. In addition, the number of dead neurons was assessed by the dye-exclusion method with propidium iodide (PI). […] The ratio of dead neurons was calculated as a percentage of PI-positive cells among total neurons.

[4] = test system: mouse cerebral cortex primary neurons; assay: Neuritic beading degeneration in neurons incubated with activated microglia conditioned medium; assay type: cell-based; conditions: for number of neurons with neuritic beading degeneration: 24 h
Method: as §1
In addition, mouse cerebral cortex primary neurons were prepared from the cerebral cortices of C57BL/6J mice at embryonic 17th day, and were plated on poly-ethyleneimine (PEI)-coated cover slips. Neurons were used at 10th to 13th culture day (Takeuchi et al. Neuritic beading induced by activated microglia is an early feature of neuronal dysfunction toward neuronal death by inhibition of mitochondrial respiration and axonal transport. J. Biol. Chem. 280, 10444-10454 (2005)).
(§3) Microglia were cultured with the culture medium (approximately 5×10^4 cells/well, Neuron Medium (manufactured by Sumitomo Bakelite Co., LTD.) administered with 1 μg/ml of LPS or 100 ng/ml of cytokines (IL-1β, IL-6, IL-10, IFN-γ, or TNF-α), respectively. Microglia were incubated under 100% humidity and 5% CO2 at 37° C. for 24 hours. Note that as a control, microglia were cultured similarly except that no cytokine was added.
Neurons in a 24-well plate (5×10^4 cells/well) were incubated with 500 μl of conditioned medium of microglia activated as above. […]
as §2

activated microglia = assay: Glutamate concentration in neuron culture medium (glutamate released from activated microglia), colorimetric assay; assay type: cell-based, mouse; conditions: 24 h; for extracellular glutamate concentration: versus no drug (TNF)
Method: as §1, §3
Neurons in a 24-well plate (5×10^4 cells/well) were incubated with 500 μl of conditioned medium of microglia activated as above. Neurons were administered similarly non-activated microglia conditioned medium to serve as a control for the indirect stimulation group. […]
In the present example, the amount of glutamate released from microglia stimulated with various cytokines, intracellular ATP concentration and mitochondrial damage in neurons incubated with conditioned medium were measured. […]
After incubation for 24 hours as above, the concentration of glutamate in the conditioned medium of each neuronal culture well was measured using Glutamate Assay Kit colorimetric assay (manufactured by Yamasa Corporation) according to the protocol thereof, measuring the absorption at 600 nm in a multiplate reader. […]
The various neurons prepared as above were cultured for 24 hours, then, glutamate concentration, the numbers of neurons with neuritic beading degeneration and dead neurons were measured for neurons in each neuronal culture well. Quantification of glutamate concentration was carried out similarly to Example 2, measurements of the numbers of neurons with neuritic beading degeneration and dead neurons were carried out similarly to Example 1. […]

[5] = test system: mouse cerebral cortex primary neurons; assay: Neuronal intracellular ATP concentration, chemiluminescent method; assay type: cell-based; conditions: conditioned medium of microglia treated with 100 ng/ml TNF-α; 24 h
Method: (§4) In the present example, the amount of glutamate released from microglia stimulated with various cytokines, intracellular ATP concentration and mitochondrial damage in neurons incubated with conditioned medium were measured. […] The evaluations were carried out by the following methods.
After incubation of the various neurons obtaine for 24 hours as above, intracellular ATP in each neuronal culture well was measured using AposSENSOR Cell Viability Assay Kit (manufactured by Bio Vision) according to the protocol thereof, by the chemiluminescent method. ATP concentration was calculated as a percentage of control.

connexin-32 (C×32) = assay: Microglial cell surface expression of connexin-32 by flow cytometry; assay type: cell-based, mouse; conditions: microglia stimulated with 100 ng/ml TNF-α, 24 h
Chain of connexin-32 (C×32) (P28230 whole entry): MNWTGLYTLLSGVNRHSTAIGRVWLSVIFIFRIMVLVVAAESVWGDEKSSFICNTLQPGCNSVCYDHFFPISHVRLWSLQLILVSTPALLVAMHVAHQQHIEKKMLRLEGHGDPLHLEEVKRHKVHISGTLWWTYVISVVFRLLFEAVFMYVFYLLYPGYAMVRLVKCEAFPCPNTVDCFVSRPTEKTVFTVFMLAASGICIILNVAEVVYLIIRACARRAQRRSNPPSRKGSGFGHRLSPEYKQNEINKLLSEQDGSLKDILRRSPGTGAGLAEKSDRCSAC
Method: In the present example, an analysis of LPS- or TNF-α-stimulated microglial cell surface expression of connexin-32 (C×32), which is a major constitutive component of gap junction, was carried out with a flow cytometer. The preparation of microglia was carried out similarly to Example 1, and microglia activation was carried out similarly to Example 4. To Detect C×32 anti-mouse C×32 antibody (manufactured by Chemicon) was used.

[6] = test system: mouse cerebral cortex primary neurons; assay: Neuronal mitochondrial damage, MTS assay; assay type: cell-based; conditions: conditioned medium of microglia treated with 100 ng/ml TNF-α; 24 h
Method: as §4
After incubation for 24 hours as above, the extent of neuronal mitochondria damage in each neuronal culture well was measured using CellTiter96 Aqueous One Solution assay (manufactured by Promega) according to the protocol, performing the MTS method, measuring the absorption at 490 nm in a multiplate reader. Note that the assays were carried out in six independent trials.

[7] = CBX 0.2, 2, 20 mg/kg i.p. every other day
[8] = CBX1/10: 2 mg/kg i.p. every other day
[9] = 100 μM CBX with activated microglia conditioned medium
[10] = DON 0.016, 0.16, 1.6 mg/kg i.p. every other day
[11] = DON1: 1.6 mg/kg i.p. every other day
[12] = 1 mM DON with activated microglia conditioned medium

CC1(C)[C@@H](OC(=O)CCC(=O)O)CC[C@]2(C)[C@H]3C(=O)C=C4[C@@H]5C[C@@](C)(C(=O)O)CC[C@]5(C)CC[C@@]4(C)[C@]3(C)CC[C@@H]12 [CBX, carbenoxolone disodium]
delayed neuronal cell death (micrographs of hippocampal CA1, FIG. 15) ([1]; CBX 0.2, 2, 20 mg/kg body weight i.p. every other day from day of ischemia): clearly inhibited
dose dependence of decrease in neuronal death [1, 7]: dose-dependent manner
number of surviving neurons per 100 μm in the hippocampal CA1 region [1, 7]: significantly protected
EAE clinical symptoms (clinical score course, FIG. 17) ([2]; CBX 0.2, 2, 20 mg/kg i.p. every other day from day of immunization): inhibited
peak clinical score [2, 8]: significantly decreased
EAE onset day (EAE clinical score becomes 1 or greater) [2, 8]: significantly delayed
number of severe sick days (EAE clinical score four or greater) [2, 8]: significantly reduced
number of dead neurons [3, 9]: inhibitory action
number of neurons with neuritic beading degeneration [4, 9]: inhibitory action
extracellular glutamate concentration (activated microglia; [9]): reduced to the control level

[N-]=[N+]=CC(=O)CC[C@H](N)C(=O)O [DON, 6-diazo-5-oxo-L-norleucine]
delayed neuronal cell death (micrographs of hippocampal CA1, FIG. 15) ([1]; DON 0.016, 0.16, 1.6 mg/kg body weight i.p. every other day from day of ischemia): clearly inhibited
dose dependence of decrease in neuronal death [1, 10]: dose-dependent manner
number of surviving neurons per 100 μm in the hippocampal CA1 region [1, 10]: significantly protected
EAE clinical symptoms (clinical score course, FIG. 17) ([2]; DON 0.016, 0.16, 1.6 mg/kg i.p. every other day from day of immunization): inhibited
EAE onset day (EAE clinical score becomes 1 or greater) [2, 11]: significantly delayed
number of severe sick days (EAE clinical score four or greater) [2, 11]: significantly reduced
number of dead neurons [3, 12]: inhibitory action
number of neurons with neuritic beading degeneration [4, 12]: inhibitory action
extracellular glutamate concentration (activated microglia; [12]): reduced to the control level

TNF-α
neuronal intracellular ATP concentration [5]: significantly low
expression of gap junction (C×32) onto the cell surface of microglia (connexin-32 (C×32)): augmented
ratio of neurons with neuritic beading degeneration as a percentage of total neurons ([4]; indirect stimulation: conditioned medium of microglia treated with 100 ng/ml cytokine for 24 h, neurons cultured 24 h): approximately 100%
extent of mitochondrial damage (MTS) [6]: significantly mild
glutamate concentration in neuron culture medium (activated microglia; conditioned medium of microglia treated with 100 ng/ml TNF-α): significantly high concentration
